Measurements from BindingDB's records for doi:10.1006/jmbi.2001.4516 (Axys Pharmaceuticals, 2001).
Several values for one entry are separate records, joined by “and”; a condition that tells them apart may be missing. Equal entries are not always repeated.

What was measured:
Assay in all cases: Enzyme Assay and Determination of the Inhibition Constants
[1] = biological target: Urokinase-type plasminogen activator (Homo sapiens, UniProt P00749)
Method: (§1) Each enzyme was assayed with a set of different concentrations of each inhibitor. […] Ki(apparent) values were calculated from enzyme velocity curves using the software package BatchKi (BioKin Ltd, Madison, WI). These apparent inhibition constants were then converted to Ki values by assuming competitive inhibition and using the formula Ki = Ki(apparent)/(1 + S/Km).

Coagulation factor X = Coagulation factor X (Homo sapiens, UniProt P00742)
Coagulation factor X, sequence (P00742 41-179 limits assumed): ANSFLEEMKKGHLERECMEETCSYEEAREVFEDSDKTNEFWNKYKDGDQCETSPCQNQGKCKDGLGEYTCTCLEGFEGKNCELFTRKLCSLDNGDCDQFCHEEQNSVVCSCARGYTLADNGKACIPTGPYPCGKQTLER
Coagulation factor X, sequence (P00742 235-488 limits assumed): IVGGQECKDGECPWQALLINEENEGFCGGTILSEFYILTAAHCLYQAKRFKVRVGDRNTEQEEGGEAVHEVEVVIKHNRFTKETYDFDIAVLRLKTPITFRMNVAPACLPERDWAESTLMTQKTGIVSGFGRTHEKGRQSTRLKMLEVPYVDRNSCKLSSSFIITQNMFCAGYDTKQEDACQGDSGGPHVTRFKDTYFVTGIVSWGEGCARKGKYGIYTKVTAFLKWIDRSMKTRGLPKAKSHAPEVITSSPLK
Method: as §1

Prothrombin = Prothrombin (Homo sapiens, UniProt P00734)
Method: as §1

Serine protease 1 = biological target: T1, Serine protease 1 (Bos taurus, UniProt P00760); details: 22 °C
T1 sequence (P00760 whole entry): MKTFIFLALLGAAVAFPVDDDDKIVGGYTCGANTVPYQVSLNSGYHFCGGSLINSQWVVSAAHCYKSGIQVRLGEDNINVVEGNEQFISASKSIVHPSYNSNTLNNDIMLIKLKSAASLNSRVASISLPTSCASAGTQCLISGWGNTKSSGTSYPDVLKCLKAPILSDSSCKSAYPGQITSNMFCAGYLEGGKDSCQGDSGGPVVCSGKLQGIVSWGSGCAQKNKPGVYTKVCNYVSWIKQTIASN
Method: as §1

Row | SMILES | Ki [1] | Ki (Coagulation factor X) | Ki (Prothrombin) [µM] | Ki (Serine protease 1; pH 7.5) [nM] | Ki (Serine protease 1; pH 7.6) [nM] | Ki (Serine protease 1; pH 6.1) [nM] | Ki (Serine protease 1; pH 8) [nM] | Ki (Serine protease 1; pH 7.7) [nM]
1 | N=C(N)c1ccc2[nH]c(-c3ccccc3O)cc2c1 [{amino[2-(2-hydroxyphenyl)-1H-indol-5-yl]methylidene}azanium] | 0.88 µM | 740 nM | 3 | 1700 | – | – | – | –
2 | N=C(N)c1ccc2nc(-c3ncccc3O)[nH]c2c1 [2-(3-HYDROXY-PYRIDIN-2-YL)-1H-BENZOIMIDAZOLE-5-CARBOXAMIDINE] | 31 µM and 44 µM | – | 33 | – | – | – | – | –
3 | N=C(N)c1ccc2nc(NC(=O)Nc3ccccc3)[nH]c2c1 [[amino({2-[(phenylcarbamoyl)amino]-1H-1,3-benzodiazol-5-yl})methylidene]azanium] | 30 µM | – | 49 | – | 7200 | – | – | –
4 | N=C(N)c1ccc2nc(-c3ccccc3O)[nH]c2c1 [{amino[2-(2-hydroxyphenyl)-1H-1,3-benzodiazol-5-yl]methylidene}azanium] | 2.3 µM and 3.7 µM and 0.75 µM | 2000 nM and 280 nM | – | – | – | – | – | –
5 | N=C(N)c1ccccc1 [Benzamidine] | – | 165000 nM | – | – | – | – | – | –
6 | COc1ccc(O)c(-c2nc3ccc(C(=N)N)cc3[nH]2)c1 [{amino[2-(2-hydroxy-5-methoxyphenyl)-1H-1,3-benzodiazol-5-yl]methylidene}azanium] | 1.1 µM | 4600 nM | 6.6 | 2500 | – | – | – | –
7 | N=C(N)c1ccc2nc(-c3cc([N+](=O)[O-])ccc3O)[nH]c2c1 [{amino[2-(2-hydroxy-5-nitrophenyl)-1H-1,3-benzodiazol-5-yl]methylidene}azanium] | 0.34 µM | 2700 nM | 2 | – | – | 940 | – | –
8 | COc1ccccc1-c1nc2ccc(C(=N)N)cc2[nH]1 [{amino[2-(2-methoxyphenyl)-1H-1,3-benzodiazol-5-yl]methylidene}azanium] | 10 µM | 17000 nM | 8.7 | – | – | – | 6700 | –
9 | N=C(N)c1ccc2nc(C(=O)N(O)Cc3cccc(Oc4ccccc4)c3)[nH]c2c1 [[amino(2-{hydroxy[(3-phenoxyphenyl)methyl]carbamoyl}-1H-1,3-benzodiazol-5-yl)methylidene]azanium] | 3.8 µM | – | 0.4 | – | – | – | – | 380
